Earlier results as cited in publication PMC6545338, “Novel chemical starting points for drug discovery in leishmaniasis and Chagas disease” (International Journal for Parasitology: Drugs and Drug …, 2019).

System: T. cruzi
Parameters: method as in Morillo et al., 2017a
Details: ref Morillo et al., 2017a; for Efficacy in the STOP-CHAGAS trial: patients

| SMILES | Patients who had to permanently discontinue treatment due to side effects (benznidazole-treated group) | Efficacy in the STOP-CHAGAS trial |
| --- | --- | --- |
| O=C(Cn1ccnc1[N+](=O)[O-])NCc1ccccc1 [benznidazole] | 32% | 62% |
| CC[C@@H]([C@H](C)O)n1ncn(-c2ccc(N3CCN(c4ccc(OC[C@@H]5CO[C@@](Cn6cncn6)(c6ccc(F)cc6F)C5)cc4)CC3)cc2)c1=O [posaconazole] | – | 19% |
